Measurements as given in patent publication US12503444B2, “Compound containing benzene ring and application thereof” (WUHAN LL SCIENCE AND TECHNOLOGY DEVELOPMENT CO., LTD., priority 2019, dated 2025).

What follows are molecules tested against T1, hP2X4 (human purinergic P2X receptor subtype 4) (Homo sapiens, UniProt Q99571) (assay: FLIPR assay of intracellular calcium increase induced by activation of hP2X4 expressed in HEK293 cells (agonist BZ-ATP 2.5 μM)). Settings: HEK293 cells stably expressing hP2X4, FLIPR, class symbols, read-out: P2X4 IC50.
T1 sequence (Q99571 1-404 isoform Q99571-2): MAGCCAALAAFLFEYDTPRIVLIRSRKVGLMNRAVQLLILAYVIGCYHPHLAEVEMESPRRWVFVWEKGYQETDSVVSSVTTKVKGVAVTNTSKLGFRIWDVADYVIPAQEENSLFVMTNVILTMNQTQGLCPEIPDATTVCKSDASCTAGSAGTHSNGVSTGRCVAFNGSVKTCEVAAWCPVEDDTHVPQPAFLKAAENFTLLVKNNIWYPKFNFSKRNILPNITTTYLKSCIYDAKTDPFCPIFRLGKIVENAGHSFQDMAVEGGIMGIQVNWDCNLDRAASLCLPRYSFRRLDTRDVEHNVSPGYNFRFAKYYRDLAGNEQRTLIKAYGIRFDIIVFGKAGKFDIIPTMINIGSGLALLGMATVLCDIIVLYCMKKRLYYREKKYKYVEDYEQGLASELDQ
Assay type: cell-based
Method: The antagonist property of the compounds disclosed herein was determined using the FLIPR (fluorescence imaging plate reader) method, wherein the compounds are inhibitors for the intracellular calcium increase induced by activation of hP2X4 (human purinergic P2X receptor subtype 4, accession No. NM_001256796.2) expressed in HEK293 cells (human renal epithelial cell line, ATCC).
HEK293 cells stably expressing hP2X4 were cultured in DMEM high glucose medium containing 10% FBS (fetal bovine serum, Biosera, FB-1058/500), 1% penicillin-streptomycin (Gibco, 15140-122) and 1 mg/mL G418 (CABIOCHE, 345810) in a cell incubator (37° C., […]). Cells at 400,000 cells/mL were seeded into a 384-well plate (10,000 cells/well) 18-24 h prior to the FLIPR experiment and then incubated overnight in a cell incubator. On the day of the experiment, the medium was discarded and the cells were washed in an FLIPR buffer (0.3 mL of probenecid (Thermo, P36400), 0.6 mL of 1 M HEPES (Invitrogen, 15630080) and 29.1 mL of HBSS (Invitrogen, 14065056) per 30 mL of the buffer). Each well was added with 20 μL of 0.5× Calcium 6 fluorescent dye (Molecular Devices, R8190) and then the cells were subjected to dye-loading incubation at 37° C. for 1.5 h. Each well was added with 10 μL of respective test compound (dissolved in DMSO at a concentration of 10 mM and serially diluted with buffer) or vehicle and the mixture was equilibrated for 30 min at room temperature. The cell plate was then placed in the FLIPR for baseline fluorescence measurements (excitation at 485 nm and emission at 525-535 nm). An agonist (BZ-ATP (Sigma, B6396) at a final concentration of 2.5 μM) or a vehicle (ultrapure water) was then added at 10 μL/well, fluorescence values were measured for 2 min at 1-second intervals, and finally the output fluorescence counts were analyzed.

`CC(c1ccc(F)cc1)n1cc2c(S(N)(=O)=O)cc(NC(=O)Cc3ccccc3Cl)cc2n1` (centres unmarked) [Compound 40-A, 2-(2-chlorophenyl)-N-(2-(1-(4-fluorophenyl)ethyl)-4-sulfamoyl-2H-indazol-6-yl)acetamide] and `CC(c1ccc(F)cc1)n1ncc2c(S(N)(=O)=O)cc(NC(=O)Cc3ccccc3Cl)cc21` (centres unmarked) [Compound 40-B, 2-(2-chlorophenyl)-N-(1-(1-(4-fluorophenyl)ethyl)-4-sulfamoyl-1H-indazol-6-yl)acetamide] cannot be ordered by IC50: 10 to 50 nM for the first, at most 10 nM for the second.

First: CC(C)C(=O)n1cc2c(S(N)(=O)=O)cc(NC(=O)Cc3ccccc3Cl)cc2n1 [Compound 41, 2-(2-chlorophenyl)-N-(2-isobutyryl-4-sulfamoyl-2H-indazol-6-yl)acetamide]
Second: CC(C)C(=O)n1ncc2c(S(N)(=O)=O)cc(NC(=O)Cc3ccccc3Cl)cc21 [Compound 58, 2-(2-chlorophenyl)-N-(1-isobutyryl-4-sulfamoyl-1H-indazol-6-yl)acetamide]
The IC50 of the first is lower: 10 to 50 nM for the first, 200 to 5000 nM for the second. The first is the more potent here.

First: NS(=O)(=O)c1cc(NC(=O)Cc2ccccc2Cl)cc2nn(C(=O)c3ccc(F)cc3)cc12 [Compound 42-A, 2-(2-chlorophenyl)-N-(2-(4-fluorobenzoyl)-4-sulfamoyl-2H-indazol-6-yl)acetamide]
Second: NS(=O)(=O)c1cc(NC(=O)Cc2ccccc2Cl)cc2c1cnn2C(=O)c1ccc(F)cc1 [Compound 42-B, 2-(2-chlorophenyl)-N-(1-(4-fluorobenzoyl)-4-sulfamoyl-1H-indazol-6-yl)acetamide]
The IC50 of the first is lower: 10 to 50 nM for the first, 200 to 5000 nM for the second. The first is the more potent here.

First: NS(=O)(=O)c1cc(NC(=O)Cc2ccccc2Cl)cc2c1cnn2C(F)F [Compound 43, 2-(2-chlorophenyl)-N-(1-(difluoromethyl)-4-sulfamoyl-1H-indazol-6-yl)acetamide]
Second: NS(=O)(=O)c1cc(NC(=O)Cc2ccccc2Cl)cc2cnn(C(F)F)c12 [Compound 50, 2-(2-chlorophenyl)-N-(1-(difluoromethyl)-7-sulfamoyl-1H-indazol-5-yl)acetamide]
The IC50 of the first is lower: 10 to 50 nM for the first, 50 to 200 nM for the second.

`NS(=O)(=O)c1cc(NC(=O)Cc2ccccc2Cl)cc2c1cnn2-c1ccc(Cl)cc1` [Compound 45, 2-(2-chlorophenyl)-N-(1-(4-chlorophenyl)-4-sulfamoyl-1H-indazol-6-yl)acetamide] and `NS(=O)(=O)c1cc(NC(=O)Cc2ccccc2Cl)cc2c1cnn2Cc1ccc(Cl)cc1` [Compound 89A, N-(1-(4-chlorobenzyl)-4-sulfamoyl-1H-indazol-6-yl)-2-(2-chlorophenyl)acetamide] cannot be ordered by IC50: 10 to 50 nM for the first, at most 10 nM for the second.

`CN(C)c1cccc(Cn2ncc3c(S(N)(=O)=O)cc(NC(=O)Cc4ccccc4Cl)cc32)c1` [Compound 46, 2-(2-chlorophenyl)-N-(1-(3-(dimethylamino)benzyl)-4-sulfamoyl-1H-indazol-6-yl)acetamide] and `Cc1ccc(Cn2ncc3c(S(N)(=O)=O)cc(NC(=O)Cc4ccccc4Cl)cc32)cc1` [Compound 92A, 2-(2-chlorophenyl)-N-(1-(4-methylbenzyl)-4-sulfamoyl-1H-indazol-6-yl)acetamide] cannot be ordered by IC50: 10 to 50 nM for the first, at most 10 nM for the second.

`NS(=O)(=O)c1cc(NC(=O)Cc2ccccc2Cl)cc2cn(CCO)nc12` [Compound 48-A, 2-(2-chlorophenyl)-N-(2-(2-hydroxyethyl)-7-sulfamoyl-2H-indazol-5-yl)acetamide] and `NS(=O)(=O)c1cc(NC(=O)Cc2ccccc2Cl)cc2cnn(CCO)c12` [Compound 48-B, 2-(2-chlorophenyl)-N-(1-(2-hydroxyethyl)-7-sulfamoyl-1H-indazol-5-yl)acetamide] fall in the same range of IC50: 200 to 5000 nM for the first, 200 to 5000 nM for the second.

`NS(=O)(=O)c1cc(NC(=O)Cc2ccccc2Cl)cc2nc(C3CC3)[nH]c12` [Compound 52, 2-(2-chlorophenyl)-N-(2-cyclopropyl-7-sulfamoyl-1H-benzo[d]imidazol-5-yl)acetamide] and `NS(=O)(=O)c1cc(NC(=O)Cc2ccccc2Cl)cc2nc(-c3ccc(Cl)cc3)[nH]c12` [Compound 54, 2-(2-chlorophenyl)-N-(2-(4-chlorophenyl)-7-sulfamoyl-1H-benzo[d]imidazol-5-yl)acetamide] fall in the same range of IC50: 200 to 5000 nM for the first, 200 to 5000 nM for the second.

Compared with `NS(=O)(=O)c1cc(NC(=O)Cc2ccccc2Cl)cc2c1ncn2-c1ccc(Cl)cc1` [Compound 55, 2-(2-chlorophenyl)-N-(1-(4-chlorophenyl)-4-sulfamoyl-1H-benzo[d]imidazol-6-yl)acetamide], `NS(=O)(=O)c1cc(NC(=O)Cc2ccccc2Cl)cc2c1c(Cl)nn2-c1ccc(F)cc1` [Compound 75, N-(3-chloro-1-(4-fluorophenyl)-4-sulfamoyl-1H-indazol-6-yl)-2-(2-chlorophenyl)acetamide] is higher in IC50: 10 to 50 nM for the first, 200 to 5000 nM for the second.

First: NS(=O)(=O)c1cc(NC(=O)Cc2ccccc2Cl)cc2[nH]ccc12 [Compound 56, 2-(2-chlorophenyl)-N-(4-sulfamoyl-1H-indol-6-yl)acetamide]
Second: NS(=O)(=O)c1cc(NC(=O)Cc2ccccc2Cl)cc2nn(C3COC3)cc12 [Compound 59, 2-(2-chlorophenyl)-N-(2-(oxetan-3-yl)-4-sulfamoyl-2H-indazol-6-yl)acetamide]
The IC50 of the first is lower: 10 to 50 nM for the first, 200 to 5000 nM for the second. The first is the more potent here.

`COc1ccc(Cn2cc3c(S(N)(=O)=O)cc(NC(=O)Cc4ccccc4Cl)cc3n2)cc1F` [Compound 82] and `COc1ccc(Cn2cc3c(S(N)(=O)=O)cc(NC(=O)Cc4ccccc4Cl)cc3n2)c(F)c1` [Compound 85] cannot be ordered by IC50: at most 10 nM for the first, at most 10 nM for the second.

`COc1ccc(Cn2ncc3c(S(N)(=O)=O)cc(NC(=O)Cc4ccccc4Cl)cc32)c(F)c1` [Compound 83, 2-(2-chlorophenyl)-N-(1-(2-fluoro-4-methoxybenzyl)-4-sulfamoyl-1H-indazol-6-yl)acetamide] and `COc1ccc(Cn2cc3c(S(N)(=O)=O)cc(NC(=O)Cc4ccccc4Cl)cc3n2)c(Cl)c1` [Compound 86] cannot be ordered by IC50: at most 10 nM for the first, at most 10 nM for the second.

`COc1ccc(Cn2cc3c(S(N)(=O)=O)cc(NC(=O)Cc4ccccc4Cl)cc3n2)c(Br)c1` [Compound 87] and `COc1ccc(Cn2cc3c(S(N)(=O)=O)cc(NC(=O)Cc4ccccc4Cl)cc3n2)nc1` [Compound 93] cannot be ordered by IC50: at most 10 nM for the first, at most 10 nM for the second.

`NS(=O)(=O)c1cc(NC(=O)Cc2ccccc2Cl)cc2nn(Cc3ccc(C(F)(F)F)cc3)cc12` [Compound 90, 2-(2-chlorophenyl)-N-(4-sulfamoyl-2-(4-(trifluoromethyl)benzyl)-2H-indazol-6-yl)acetamide] and `Cc1ccc(Cn2cc3c(S(N)(=O)=O)cc(NC(=O)Cc4ccccc4Cl)cc3n2)cc1` [Compound 92, 2-(2-chlorophenyl)-N-(2-(4-methylbenzyl)-4-sulfamoyl-2H-indazol-6-yl)acetamide] cannot be ordered by IC50: at most 10 nM for the first, at most 10 nM for the second.

`COc1ccc(Cn2cc3c(S(N)(=O)=O)cc(NC(=O)Cc4ccccc4Cl)cc3n2)cn1` [Compound 94] and `Nc1ccc(Cn2cc3c(S(N)(=O)=O)cc(NC(=O)Cc4ccccc4Cl)cc3n2)cc1` [Compound 95, N-(2-(4-aminobenzyl)-4-sulfamoyl-2H-indazol-6-yl)-2-(2-chlorophenyl)acetamide] cannot be ordered by IC50: at most 10 nM for the first, at most 10 nM for the second.

Same assay, conditions: HEK293 cells stably expressing hP2X4, FLIPR, numeric values, read-out: P2X4 IC50

First: NS(=O)(=O)c1cc(NC(=O)Cc2ccccc2Cl)cc2cn(C(F)F)nc12 [Compound 49, 2-(2-chlorophenyl)-N-(2-(difluoromethyl)-7-sulfamoyl-2H-indazol-5-yl)acetamide]
Second: N#Cc1nc2c(S(N)(=O)=O)cc(NC(=O)Cc3ccccc3Cl)cc2[nH]1 [Compound 51, 6-(2-chlorophenylacetamide)-2-nitrile-4-sulfonamide benzimidazole]
The IC50 of the first is 10-fold lower: 89.5 nM for the first, 934 nM for the second.
